Results reported in ChEMBL document CHEMBL1122857, “A uniquely potent renin inhibitor and its unanticipated plasma binding component” (J Med Chem, 1985).
pIC50, pKi: −log10 of the molar value. Non-standard residues stand in square brackets, D forms with d. Residues, ends and D or L forms follow the SMILES beside them. *: point of attachment. Sta = CC(C)C[C@H](N)[C@@H](O)CC(=O)O; X1 = c1ccc(CN2CCC(N*)CC2)cc1; Boc = CC(C)(C)OC(=O)*

Key:
[1] = target: T1, Renin (Homo sapiens, UniProt P00797); assay: Compound was tested for inhibition of human kidney renin
T1 sequence (P00797 whole entry): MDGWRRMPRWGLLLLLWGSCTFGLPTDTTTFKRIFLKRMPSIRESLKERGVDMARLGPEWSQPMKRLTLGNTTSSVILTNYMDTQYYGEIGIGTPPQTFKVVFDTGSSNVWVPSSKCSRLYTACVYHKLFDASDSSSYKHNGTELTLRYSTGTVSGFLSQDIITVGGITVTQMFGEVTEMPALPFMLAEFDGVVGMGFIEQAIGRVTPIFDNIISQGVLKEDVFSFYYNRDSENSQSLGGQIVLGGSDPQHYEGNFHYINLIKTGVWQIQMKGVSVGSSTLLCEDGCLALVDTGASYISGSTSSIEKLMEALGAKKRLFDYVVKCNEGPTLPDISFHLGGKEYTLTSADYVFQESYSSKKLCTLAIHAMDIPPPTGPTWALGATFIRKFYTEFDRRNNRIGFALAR

[2] = target: T1, Renin; assay: (§1) Compound was tested for inhibition of human plasma renin; assay type: cell-free; conditions: read-out: I50
[3] = target: Renin (Sus scrofa); assay: Compound was tested for inhibition of hog kidney renin; conditions: read-out: I50
[4] = target: T2, Renin (Homo sapiens) (UniProt P00797); assay: as §1; assay type: cell-free; conditions: concentration not given here
T2 sequence (whole entry): T1 sequence (P00797 whole entry)

Row | pKi [1] | pIC50 [2] | pIC50 [3] | inhibition [4] | Structure (SMILES)
1 | 10.19 | 7.60 | 6.57 |  | CC(C)C[C@H](NC(=O)C[C@H](O)[C@H](CC(C)C)NC(=O)[C@H](Cc1c[nH]cn1)NC(=O)[C@H](Cc1ccccc1)NC(=O)OC(C)(C)C)C(=O)NC1CCN(Cc2ccccc2)CC1 (Boc-FH[Sta]L-X1)
2 | 10.59 | 6.00 | 6.07 | 37% | CC(C)C[C@@H](CNCc1ccccc1)NC(=O)C[C@H](O)[C@H](CC(C)C)NC(=O)[C@H](Cc1ccccc1)NC(=O)[C@H](Cc1ccccc1)NC(=O)OC(C)(C)C
3 | 8.32 |  | 7.06 |  | CC(C)C[C@H](NC(=O)C[C@H](O)[C@H](CC(C)C)NC(=O)[C@H](Cc1ccccc1)NC(=O)[C@H](Cc1ccccc1)NC(=O)OC(C)(C)C)C(=O)N[C@@H](Cc1ccccc1)C(N)=O (Boc-FF[Sta]LF-NH2)
